# Results from patent US20250195524A1, “PYRIMIDO-PYRIDAZINONE COMPOUND AS TOLL-LIKE RECEPTOR AGONIST” (SHANGHAI VISONPHARMA CO., LTD., priority 2022, published 2025).
# Target: T1, human TLR8 (Homo sapiens, UniProt Q9NR97)
# T1 construct: host or cells: HEK-Blue hTLR8 (HEK293-derived reporter cells)
# T1 sequence (Q9NR97 27-1041): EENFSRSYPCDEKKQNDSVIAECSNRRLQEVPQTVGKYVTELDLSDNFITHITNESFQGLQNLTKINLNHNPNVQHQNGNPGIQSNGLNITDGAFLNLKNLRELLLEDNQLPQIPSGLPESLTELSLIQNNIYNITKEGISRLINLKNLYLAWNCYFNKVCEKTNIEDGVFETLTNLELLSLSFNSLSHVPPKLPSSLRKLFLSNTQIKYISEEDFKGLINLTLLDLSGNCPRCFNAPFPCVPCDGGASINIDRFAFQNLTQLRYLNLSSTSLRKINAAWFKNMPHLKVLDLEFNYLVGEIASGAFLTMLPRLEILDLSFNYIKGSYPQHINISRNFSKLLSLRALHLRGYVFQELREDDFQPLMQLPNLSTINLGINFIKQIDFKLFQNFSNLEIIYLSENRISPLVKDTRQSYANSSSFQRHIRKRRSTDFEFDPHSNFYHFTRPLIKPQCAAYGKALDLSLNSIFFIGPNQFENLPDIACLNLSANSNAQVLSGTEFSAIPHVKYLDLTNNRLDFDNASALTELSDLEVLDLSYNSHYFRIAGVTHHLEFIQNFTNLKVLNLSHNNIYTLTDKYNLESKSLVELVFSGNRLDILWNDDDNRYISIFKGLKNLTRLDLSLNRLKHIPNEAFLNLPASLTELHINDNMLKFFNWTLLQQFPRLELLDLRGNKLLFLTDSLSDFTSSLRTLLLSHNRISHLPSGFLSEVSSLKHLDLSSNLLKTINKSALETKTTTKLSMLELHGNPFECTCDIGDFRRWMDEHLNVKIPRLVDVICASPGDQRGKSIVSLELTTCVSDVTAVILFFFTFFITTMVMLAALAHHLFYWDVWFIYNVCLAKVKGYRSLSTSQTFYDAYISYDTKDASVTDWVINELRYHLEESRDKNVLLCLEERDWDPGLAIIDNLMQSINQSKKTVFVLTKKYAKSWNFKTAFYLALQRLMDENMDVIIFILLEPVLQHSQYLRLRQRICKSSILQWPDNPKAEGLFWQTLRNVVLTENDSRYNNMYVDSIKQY
# Assay: HEK-Blue hTLR8 SEAP reporter gene agonism assay
# Assay type: cell-based
# Conditions: HEK-Blue hTLR8 cells, SEAP (Quanti-blue, 650 nm), 16-22 hours incubation
# Protocol: The agonistic activity of the compounds of the present invention on TLR7 or TLR8 was evaluated using HEK-Blue™ cells stably expressing human TLR7 or TLR8. And the agonistic activity was assayed using their ability to induce the SEAP reporter gene under the control of the IFN-β minimal promoter fused to five NF-κB and ap-1 binding sites, specifically as follows:
# HEK-Blue™ hTLR7 (Invivogen, 80,000 cells per well) or HEK-Blue™ hTLR8 (Invivogen, 60,000 cells per well) was added to a 96-well cell culture plate, the compound to be tested is added whereafter, and the final concentration of the compound(s) to be tested in the medium ranged from 0.001 to 36 μM, then incubated for 16-22 hours. SEAP levels in the cell culture medium were detected using HEK-Blue assay reagent Quanti-blue (Invivogen) according to the manufacturer's instructions. Neo2 Multifunctional Enzyme Labeler (Bio-tek) was used to determine the light absorption at 650 nm. GraphPad Prism was utilized to calculate the EC50, which is the half effective concentration of the drug.
row,Compound,EC50 [nM]
1,"CCC[C@@H](CO)Nc1nc(N)nc2cnn(Cc3ccc(CN4CCCC4)cc3)c(=O)c12 [Compound I-59, (S)-2-amino-4-((1-hydroxypentan-2-yl)amino)-6-(4-(pyrrolidin-1-ylmethyl)benzyl)pyrimido[4,5-d]pyridazin-5(6H)-one]",9
2,"CCC[C@@H](C)Nc1nc(N)nc2cnn(Cc3ccc(C(=O)N4CCN(C)CC4)cc3)c(=O)c12 [Compound I-60, (R)-2-amino-6-(4-(4-methylpiperazine-1-carbonyl)benzyl)-4-(pentan-2-ylamino)pyrimido[4,5-d]pyridazin-5(6H)-one]",192
3,"CCCCNc1nc(N)nc2cnn(Cc3ccc(CN4CCCC4)cn3)c(=O)c12 [Compound I-62, 2-amino-4-(butylamino)-6-((5-(pyrrolidin-1-ylmethyl)pyridin-2-yl)methyl)pyrimido[4,5-d]pyridazin-5(6H)-one]",589
4,"CCC[C@@H](CC)Nc1nc(N)nc2cnn(Cc3ccc(CN4CCCC4)cc3)c(=O)c12 [Compound I-63, (R)-2-amino-4-(hexan-3-ylamino)-6-(4-(pyrrolidin-1-ylmethyl)benzyl)pyrimido[4,5-d]pyridazin-5(6H)-one]",534
5,"CCC[C@@H](CO)Nc1nc(N)nc2cnn(Cc3ccc(CN4CCN(C)CC4)cc3)c(=O)c12 [Compound I-66, (S)-2-amino-4-((1-hydroxypentan-2-yl)amino)-6-(4-((4-methylpiperazin-1-yl)methyl)benzyl)pyrimido[4,5-d]pyridazin-5(6H)-one]",23
6,"CCCC[C@@H](CO)Nc1nc(N)nc2cnn(Cc3ccc(CN4CCCC4)cc3)c(=O)c12 [Compound I-67, (S)-2-amino-4-((1-hydroxyhexan-2-yl)amino)-6-(4-(pyrrolidin-1-ylmethyl)benzyl)pyrimido[4,5-d]pyridazin-5(6H)-one]",51
7,"CCC[C@@H](CO)Nc1nc(N)nc2cnn(Cc3ccc(C(=O)N4CCN(C)CC4)cc3)c(=O)c12 [Compound I-69, (S)-2-amino-4-((1-hydroxypentan-2-yl)amino)-6-(4-(4-methylpiperazine-1-carbonyl)benzyl)pyrimido[4,5-d]pyridazin-5(6H)-one]",41
8,"CCC[C@@H](CO)Nc1nc(N)nc2cnn(Cc3ccc(C(=O)N4CC5CC(C4)N5)cc3)c(=O)c12 [Compound I-70, 6-(4-(3,6-diazabicyclo[3.1.1]heptane-3-carbonyl)benzyl)-2-amino-4-(((S)-1-hydroxypentan-2-yl)amino)pyrimido[4,5-d]pyridazin-5(6H)-one]",20
